From US20240010726A1, “LFA-1 SIGNALLING MEDIATOR FOR USE IN CANCER THERAPY” (Universität Basel, priority 2020, published 2024)

Assays:
[1] = system: human PHA T cell blasts; assay: Degranulation of PHA T cell blasts ± BIRT377; assay type: cell-based; conditions: ±BIRT377 50 μM
[2] = system: human PHA T cell blasts; assay: Glycolytic switch of PHA T cell blasts ± BIRT377; assay type: cell-based; conditions: ±BIRT377 50 μM
[3] = system: murine WT and LFA-1^−/− CTLs; assay: Degranulation marker CD107a on murine WT and LFA-1−/− CTLs; assay type: cell-based; conditions: 8 h anti-CD3/anti-CD28 Ab; 1.2 mM Mg^2+ ± BIRT377 50 μM
[4] = system: T2 target cells; assay type: cell-based, human; conditions: 45 min; E:T 1:1; 1.2 mM Mg^2+ ± BIRT377 50 μM
[5] = system: REP T cells; assay: FAK phosphorylation and CD107a degranulation of REP T cells co-incubated with T2 target cells; assay type: cell-based, human; conditions: pulsed T2 target cells; 1.2 mM Mg^2+ ± BIRT377 50 μM
Protocol: FIG. 3: Magnesium regulates LFA-1 mediated T cell activation and cytotoxicity as well BiTE- and CAR T-cell functionality. (a) Glycolytic switch of murine WT and LFA-1^−/− CTLs upon injection of anti-CD3/28 Ab in medium containing 1.2 mM Mg^2+ and 0 mM Mg^2+, presented as quantification of summarized data with n=4 mice. (b) Calcium flux in WT and LFA-1^−/− Jurkat T cells stimulated with anti-CD3 Ab in 1.2 mM and 0 mM Mg^2+ medium, respectively. Cells were loaded with Fluo4, and signal intensity as recorded by plate reader, was normalized to unstimulated baseline values. […] Quantified results of n=3 mice with 3 technical replicates each. (d) Caspase-3 activity in EL4 target cells after co-culture with murine WT and LFA-1^−/− CTLs under the conditions as in (c) for 4 hours, in presence of 10 μg/ml PHA. The effector to target cell ratio was 3:1. Results are quantified of n=3 mice with 3 technical replicates each. (e) Representative CD11a (LFA-1) surface expression on human naïve and EM CD8 T cells, PHA T cell blasts and REP T cells, assessed by flow cytometry. Flow cytometry-based assessment of inactivate LFA-1 with bent conformation (f), extended conformation with β2 leg extension (g), LFA-1 with open head-piece (h), phosphorylation of FAK, expression of degranulation marker CD107a (j) on REP T cells after co-incubation with T2 target cells (pulsed with 10^−8 M 9c peptide) in same condition as in (c). The effector to target cell ratio was 1:1. Data is presented as quantified results of n=5 healthy donors (f, g, h), n=3 healthy donors with 2 technical replicates each or n=1 healthy donor with 4 technical replicates (j). […] Data is presented as quantified results of n=1 healthy donor with 4 technical replicates. […] Cytotoxicity is reported as total area under the curve of the fluorescence driven by incorporation of cytotoxic green reagent in dead target cells (green area per μm^2). […] (p) Abundance of IFNγ in cell culture supernatants corresponding to the conditions depicted in (o) at 24 hours was determined by ELISA (n=8, 3 independent experiments). […]

[6] = system: Ramos target cells; assay: Co-culture assay with Blinatumomab, caspase-3 activity in Ramos target cells; assay type: cell-based, human; conditions: PHA-blasts, 3.5 h co-culture; reported therapeutic range 230-620 pg ml^−1; varying Mg^2+
Protocol: FIG. 3: Magnesium regulates LFA-1 mediated T cell activation and cytotoxicity as well BiTE- and CAR T-cell functionality. (a) Glycolytic switch of murine WT and LFA-1^−/− CTLs upon injection of anti-CD3/28 Ab in medium containing 1.2 mM Mg^2+ and 0 mM Mg^2+, presented as quantification of summarized data with n=4 mice. (b) Calcium flux in WT and LFA-1^−/− Jurkat T cells stimulated with anti-CD3 Ab in 1.2 mM and 0 mM Mg^2+ medium, respectively. Cells were loaded with Fluo4, and signal intensity as recorded by plate reader, was normalized to unstimulated baseline values. […] Quantified results of n=3 mice with 3 technical replicates each. […] Results are quantified of n=3 mice with 3 technical replicates each. (e) Representative CD11a (LFA-1) surface expression on human naïve and EM CD8 T cells, PHA T cell blasts and REP T cells, assessed by flow cytometry. […] Data is presented as quantified results of n=5 healthy donors (f, g, h), n=3 healthy donors with 2 technical replicates each or n=1 healthy donor with 4 technical replicates (j). […] Data is presented as quantified results of n=1 healthy donor with 4 technical replicates. […] Cytotoxicity is reported as total area under the curve of the fluorescence driven by incorporation of cytotoxic green reagent in dead target cells (green area per μm^2). […]

Substance	Degranulation of PHA T cell blasts [1]	Glycolytic switch of PHA T cell blasts [2]	CD107a degranulation of LFA-1^−/− CTLs [3]	CD107a degranulation of WT CTLs [3]	Target cell killing by REP T cells (caspase-3 activity in T2 target cells) [4]	Degranulation (CD107a) of REP T cells [5]	Blinatumomab-mediated cytotoxicity (caspase-3 activity in Ramos target cells) [6]
BIRT377 [reference compound]	decreased degranulation	impaired glycolytic switching	unaffected	reduced CTL degranulation	reduced	reduced degranulation	
Blinatumomab: CD3/CD19 bispecific antibody engaging T cells to bind and eliminate CD19-positive cells							strongly dependent on availability of Mg^2+
